{"source": "patent US8697658B2", "about": "“Glycoside compounds” (National Health Research Institutes, priority 2011, dated 2014)", "key": {"Male Sprague-Dawley rats": {"system": "Male Sprague-Dawley rats", "experiment": "In vivo urine glucose excretion assay", "design": "species or system rat", "details": "single oral dose 0.1, 1, 10, and 50 mg/kg, then 50% glucose solution 2 g/kg orally, 24-hour urine collection", "procedure": "Male Sprague-Dawley rats were used for glucosuria assessment. Male Sprague-Dawley rats of 8-10 weeks old were obtained from BioLasco, Ilan, Taiwan. The rats to be tested were fasted overnight and divided into 6 weight-matched groups. The rats were mildly anesthetized with a mixed gas of 30% O2 and 70% CO2 by inhalation and were orally gavaged with a single dose of the tested compounds (0.1, 1, 10, and 50 mg/kg), dapagliflozin (reference compound, 1 mg/kg), or vehicle. Each of the tested rats was subsequently dosed orally with 50% glucose solution (2 g/kg). The rats were returned to metabolism cages (ISHIHALA, Tokyo, Japan) for 24-hour urine collection and were re-fed at 1 h after the glucose challenge. Volume of the urine was measured and recorded. The urine samples were measured for glucose levels by a DRI-CHEM 3500 analyzer (FUJI, Tokyo, Japan). A P value of less than 0.05 was considered statistically significant."}, "[1]": {"system": "Streptozotocin-induced diabetes rats", "experiment": "In vivo anti-hyperglycemia assay", "design": "species or system rat", "details": "streptozotocin-induced diabetic rats, single oral dose, blood glucose at 0-5 hr, various dosages", "procedure": "Streptozotocin-induced diabetes rats were used for assessment of blood glucose lowering effect. Adult male Sprague Dawley rats were obtained from BioLasco, Ilan, Taiwan. The rats received an intraperitoneal injection of streptozotocin (Sigma, Cat. No. S0130, St. Louis, Mo., USA) at a concentration of 65 mg/kg every other day. The streptozotocin solution was freshly prepared in 0.01 M citrate buffer. Blood samples were collected via tail vein with a 25 G needle once a week and were tested using a blood glucometer (ACCU-CHEK® from Roche, Basel, Schweiz) for glucose level. A glucose level of higher than 450 mg/dL indicates streptozotocin-induced diabetes. The diabetic rats were divided into 3-6 groups and were orally administered with a single dose of the tested compounds, dapagliflozin (reference compound), or vehicle. Blood samples were collected via tail vein at 0 (pre-dose), 0.5, 1, 2, 3, 4, and 5 hr after the oral administration and were measured for blood glucose levels with the glucometer. A P value of less than 0.05 was considered statistically significant."}}, "data": [{"smiles": "CCOc1ccc(Cc2cc([C@@H]3O[C@H](C=NO)[C@@H](O)[C@H](O)[C@H]3O)ccc2Cl)cc1", "note": "[Compound 70]", "values": [{"measurement": "effect in increasing urinary glucose excretion", "setting": "Male Sprague-Dawley rats", "result": "strong effect in increasing urinary glucose excretion in a dose-dependent manner"}, {"measurement": "anti-hyperglycemia effect (blood glucose lowering)", "setting": "[1]", "result": "strong anti-hyperglycemia effect"}]}, {"smiles": "CCOc1ccc(Cc2cc([C@@H]3O[C@H](C=NOC)[C@@H](O)[C@H](O)[C@H]3O)ccc2Cl)cc1", "note": "[Compound 71]", "values": [{"measurement": "effect in increasing urinary glucose excretion", "setting": "Male Sprague-Dawley rats", "result": "strong effect in increasing urinary glucose excretion in a dose-dependent manner"}]}, {"smiles": "CCOc1ccc(Cc2cc([C@@H]3O[C@H](C=NNCCO)[C@@H](O)[C@H](O)[C@H]3O)ccc2Cl)cc1", "note": "[Compound 78]", "values": [{"measurement": "effect in increasing urinary glucose excretion", "setting": "Male Sprague-Dawley rats", "result": "strong effect in increasing urinary glucose excretion in a dose-dependent manner"}, {"measurement": "anti-hyperglycemia effect (blood glucose lowering)", "setting": "[1]", "result": "strong anti-hyperglycemia effect"}]}, {"smiles": "CCOc1ccc(Cc2cc([C@@H]3O[C@H](CNOC)[C@@H](O)[C@H](O)[C@H]3O)ccc2Cl)cc1", "note": "[Compound 79]", "values": [{"measurement": "effect in increasing urinary glucose excretion", "setting": "Male Sprague-Dawley rats", "result": "strong effect in increasing urinary glucose excretion in a dose-dependent manner"}]}, {"smiles": "CCOc1ccc(Cc2cc([C@@H]3O[C@H](C=NNC(=O)c4cccs4)[C@@H](O)[C@H](O)[C@H]3O)ccc2Cl)cc1", "note": "[Compound 81]", "values": [{"measurement": "effect in increasing urinary glucose excretion", "setting": "Male Sprague-Dawley rats", "result": "strong effect in increasing urinary glucose excretion in a dose-dependent manner"}]}, {"smiles": "CCOc1ccc(Cc2cc([C@@H]3O[C@H](C=NNC(=S)NC)[C@@H](O)[C@H](O)[C@H]3O)ccc2Cl)cc1", "note": "[Compound 87]", "values": [{"measurement": "effect in increasing urinary glucose excretion", "setting": "Male Sprague-Dawley rats", "result": "strong effect in increasing urinary glucose excretion in a dose-dependent manner"}, {"measurement": "anti-hyperglycemia effect (blood glucose lowering)", "setting": "[1]", "result": "strong anti-hyperglycemia effect"}]}, {"smiles": "CCOc1ccc(Cc2cc([C@@H]3O[C@H](C=NNC(=O)c4ccccc4)[C@@H](O)[C@H](O)[C@H]3O)ccc2Cl)cc1", "note": "[Compound 93]", "values": [{"measurement": "effect in increasing urinary glucose excretion", "setting": "Male Sprague-Dawley rats", "result": "strong effect in increasing urinary glucose excretion in a dose-dependent manner"}, {"measurement": "anti-hyperglycemia effect (blood glucose lowering)", "setting": "[1]", "result": "strong anti-hyperglycemia effect"}]}, {"smiles": "CCOc1ccc(Cc2cc([C@@H]3O[C@H](C=NNC(=O)c4ccc(Cl)s4)[C@@H](O)[C@H](O)[C@H]3O)ccc2Cl)cc1", "note": "[Compound 95]", "values": [{"measurement": "effect in increasing urinary glucose excretion", "setting": "Male Sprague-Dawley rats", "result": "strong effect in increasing urinary glucose excretion in a dose-dependent manner"}, {"measurement": "anti-hyperglycemia effect (blood glucose lowering)", "setting": "[1]", "result": "strong anti-hyperglycemia effect"}]}, {"smiles": "O[C@@H]1[C@@H](O)[C@H](c2cn(Cc3ccc(C4CC4)cc3)c3c(F)cccc23)OC[C@H]1O", "note": "[Compound 108]", "values": [{"measurement": "anti-hyperglycemia effect (blood glucose lowering)", "setting": "[1]", "result": "strong anti-hyperglycemia effect"}]}]}
